Measured values published in patent US20130102680A1, “METHODS FOR SELECTIVE SILENCING OF SENSORY NEURONS” (CORNELL UNIVERSITY, priority 2011, published 2013).
Each block holds one compound with its values, some of them ahead of it.

What was measured:
rat TRPV1 [1] = target: T1, rat TRPV1 (Rattus norvegicus, UniProt O35433); test: YO-PRO-1 uptake (imaging / plate-reader) in TRPV1-expressing cells; assay type: cell-based; details: for fold decrease of t1/2 to maximal YO-PRO-1 fluorescence, pretreated vs not pretreated cells: 50 μM agonist pre-incubated two hours then removed, 5 μM YO-PRO-1, n=3; for agonist-induced YO-PRO-1 uptake: extracellular application
T1 construct: expressed in transfected cells
T1 sequence (O35433 whole entry): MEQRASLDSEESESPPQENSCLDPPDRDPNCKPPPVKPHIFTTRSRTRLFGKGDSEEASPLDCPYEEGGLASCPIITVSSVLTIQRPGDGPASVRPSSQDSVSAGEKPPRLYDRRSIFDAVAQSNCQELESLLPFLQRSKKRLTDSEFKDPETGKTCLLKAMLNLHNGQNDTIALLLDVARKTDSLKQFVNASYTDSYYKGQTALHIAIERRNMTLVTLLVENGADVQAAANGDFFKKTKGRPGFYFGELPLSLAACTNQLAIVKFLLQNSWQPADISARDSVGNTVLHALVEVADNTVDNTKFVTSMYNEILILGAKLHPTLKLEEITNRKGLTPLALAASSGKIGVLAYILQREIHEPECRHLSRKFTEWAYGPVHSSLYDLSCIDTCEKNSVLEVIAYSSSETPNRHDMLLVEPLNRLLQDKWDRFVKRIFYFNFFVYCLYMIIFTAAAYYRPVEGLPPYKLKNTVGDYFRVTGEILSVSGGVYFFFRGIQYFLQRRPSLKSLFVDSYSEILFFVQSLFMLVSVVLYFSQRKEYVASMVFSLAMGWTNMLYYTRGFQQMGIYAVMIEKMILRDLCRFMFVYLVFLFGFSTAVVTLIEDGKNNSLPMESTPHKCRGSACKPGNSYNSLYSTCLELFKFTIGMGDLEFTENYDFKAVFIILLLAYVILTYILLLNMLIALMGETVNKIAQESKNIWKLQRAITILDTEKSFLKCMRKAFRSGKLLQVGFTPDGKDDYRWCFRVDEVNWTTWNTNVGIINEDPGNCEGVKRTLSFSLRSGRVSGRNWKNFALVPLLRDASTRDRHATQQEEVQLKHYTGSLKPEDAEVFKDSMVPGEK
Procedure: Human embryonic kidney (HEK) 293 cells stably expressing rat TRPV1 were grown in DMEM/F12 with 10% newborn calf serum and antibiotics and cultured in a 5% CO2 aerated incubator at 37° C. Cells were trypsinized and plated on 96-well plates or matrix-coated coverslips for Ca^2+ imaging, YO-PRO-1 imaging, plate-reader assays, or electrophysiological recording. Calcium imaging, fluorescent dye uptake assays, and electrophysiological experiments were all performed 24-72 hours after plating.
Cells were plated in 96-well plates to near confluence. Images were acquired at a rate of 1 frame per 15 sec. The fields were illuminated for 2 sec for each frame. The fluorescent intensity was measured at the emission wavelength of 510/20 nm. 2× concentration of agonists and 10 μM YO-PRO-1 were mixed and added at equal volume to a bath solution with the same electrolyte composition except omitting CaCl2.
TRPV1 cell lines were passed into 96-well plate, grown to confluence, and assayed in a physiological Ringer solution. 50 μl of solution as used for YO-PRO-1 imaging with agonists of various concentrations was added to each well. Fluorescence intensity (485-nm excitation, 516-nm emission) was monitored by Multi-detection Microplate Reader (BioTek). For normalization, cells were fixed by 5% PFA at the end of experiments and counted total fluorescence from each well after adding digitonin solution (Assay Designs) with 5 μM YO-PRO-1.

rat TRPV1 [2] = target: T1, rat TRPV1; test: Electrophysiology of membrane patches from HEK cells expressing rat TRPV1; assay type: cell-based
rat TRPV1 [3] = target: T1, rat TRPV1; test: Ca^2+ imaging (Fura-2) in HEK293 cells stably expressing rat TRPV1; assay type: cell-based; details: for intracellular Ca^2+ level on extracellular application: ratiometric fura-2 imaging
[4] = system: voltage gated Na+ channels; test: Neuronal Na+ currents after cap-ET and/or QX-314 loading, whole-cell recording; details: PAO or cap-ET alone (10 μM), then 5 mM QX-314
rTRPV1 Y511A = target: T2, rTRPV1 Y511A (Rattus norvegicus, UniProt O35433, Y511A); test: YO-PRO-1 entry in HEK cells expressing rTRPV1 Y511A; assay type: cell-based
T2 construct: expressed in transfected cells; host or cells: HEK cells
T2 sequence (O35433 whole entry Y511A): as the sequence (O35433 whole entry) above, with Y511A counted along it

SMILES: CCCC(=O)O[C@@H]1[C@@H](C)[C@@]2(O)[C@@H](C=C(CO)C[C@]3(O)C(=O)C(C)=C[C@@H]23)[C@@H]2C(C)(C)[C@]12OC(=O)CCC [PDBu]
effect on potency of capsaicin or cap-ET for YO-PRO-1 uptake (rat TRPV1 [1]): increased the potency

SMILES: N.N.N.N.N.N.N.N.N.N.N.N.N.N.[Cl-].[Cl-].[Cl-].[Cl-].[Cl-].[Cl-].[O-2].[O-2].[Ru+3].[Ru+3].[Ru+4] [RR, ruthenium red]
effect on capsaicin-mediated YO-PRO-1 entry (rat TRPV1 [1]; 10 μM): effectively suppressed YO-PRO-1 entry

SMILES: CC[N+](CC)(CC)CCOc1ccc(CNC(=O)CCCC/C=C/C(C)C)cc1OC [cap-ETEA, capsaicin O-tetra-ethylammonium acetate]
intracellular Ca^2+ level on extracellular application (rat TRPV1 [3]): effectively raised intracellular Ca^2+ levels

Second part, led by results:

block of TRPV1 currents evoked by 10 μM capsaicin (rat TRPV1 [2]; 5 μM, inside-out patch): reversibly blocked
SMILES: C[n+]1c(C=C2C=CN(CCC[N+](C)(C)C)c3ccccc32)oc2ccccc21 [YO-PRO-1, reference compound]

block of capsaicin-induced TRPV1 currents (rat TRPV1 [2]; 100 μM cap-ET co-applied with 30 μM capsaicin, from outside or inside): strong voltage-dependent block
electric current induced on cytoplasmic side of inside-out patch (rat TRPV1 [2]; 100 μM cap-ET, compared to 30 μM capsaicin): barely detectable electric current
fold decrease of t1/2 to maximal YO-PRO-1 fluorescence, pretreated vs not pretreated cells (rat TRPV1 [1]): 5.37±0.99 fold
agonist-induced YO-PRO-1 uptake (rat TRPV1 [1]): induced YO-PRO-1 uptake
hydrophilicity relative to capsaicin, based on water/octanol partitioning: over 300 fold
SMILES: COc1cc(CNC(=O)CCCC/C=C/C(C)C)ccc1OCC[N+](C)(C)C [cap-ET, capsaicin O-ethyl (trimethyl-ammonium) acetate]
rank of potency and efficacy in Ca^2+ signals among the three charged capsaicinoids (rat TRPV1 [3]): most potent and efficacious among the three
intracellular Ca^2+ level on extracellular application (rat TRPV1 [3]): effectively raised intracellular Ca^2+ levels
Icap-ET/Icap (ionic current relative to capsaicin), PAO-sensitized TRPV1 (rat TRPV1 [2]): 3.0±0.9%
electric current induced, TRPV1 sensitized by 10 μM PAO (rat TRPV1 [2]; 100 μM cap-ET): recordable but small current
Na+ current density after QX-314, agent alone [4]: comparable to cells not exposed to QX-314

intracellular Ca^2+ level on extracellular application (rat TRPV1 [3]): large intracellular Ca^2+ rise
fold decrease of t1/2 to maximal YO-PRO-1 fluorescence, pretreated vs not pretreated cells (rat TRPV1 [1]): 1.14±0.04 fold
agonist-induced YO-PRO-1 uptake (rat TRPV1 [1]): induced YO-PRO-1 uptake
YO-PRO-1 transport via rTRPV1 Y511A mutant (rTRPV1 Y511A): failed to elicit YO-PRO-1 transport
SMILES: COc1cc(CNC(=O)CCCC/C=C/C(C)C)ccc1O [capsaicin]
